According to ChEMBL document CHEMBL1148151, “Micromide and guamamide: cytotoxic alkaloids from a species of the marine cyanobacterium Symploca” (J Nat Prod, 2004):

Test system: KB
Experiment: Cytotoxicity against human KB cells
Assay type: functional, cell-based

Row | SMILES | IC50 [nM]
1 | CCC[C@H](CC(=O)N[C@@H](Cc1ccccc1)C(=O)N(C)[C@@H](C(=O)N[C@H](C(=O)N(C)[C@H](C(=O)N(C)[C@@H](Cc1ccccc1)C(=O)N(C)Cc1nccs1)[C@@H](C)CC)C(C)C)C(C)C)OC [MICROMIDE] | 260
2 | CCCCCCCCCCCC(=O)OC(C)C(OC(C)=O)C(C)C(=O)NC[C@H](O)CC(=O)OC (some centres not stated) [GUAMAMIDE] | 1200
